Data on 4 substances can be found in patent US4831026A, “2-oxa-isocephem compounds, compositions containing same and processes of using” (Otsuka Pharmaceutical Co., Ltd., priority 1985, dated 1989).

One test relates to M. morganii ATCC-25830. Put plainly: Antimicrobial activity test: MIC by the agar plate dilution method, M. morganii ATCC-25830. Conditions: inoculum 1×10^6 cells/ml. Format: cell-based. In a few lines:
(§1)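 Inoculum 1×10^6 cells/ml, set by O.D. at 600 mμ of 0.07-0.16; minimal inhibitory concentration read on agar plates containing serial compound dilutions.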

Another test has as its system S. aureus FDA-209-p. Put plainly: Antimicrobial activity test: MIC by the agar plate dilution method, S. aureus FDA-209-p. Conditions: inoculum 1×10^6 cells/ml. Format: cell-based, Staphylococcus aureus. The essentials: as §1
Another test has as its system S. marcescens IFO-12648. Kind of test: Antimicrobial activity test: MIC by the agar plate dilution method, S. marcescens IFO-12648. It counts as cell-based. Conditions: S. marcescens IFO-12648; inoculum 1×10^6 cells/ml. The essentials:
as §1

A further test has as its system E. coli NIHJ. Put plainly: Antimicrobial activity test: MIC by the agar plate dilution method, E. coli NIHJ. Conditions: inoculum 1×10^6 cells/ml. It counts as cell-based. How it is done: In order to investigate the in vitro activity of the under-mentioned compounds against various bacteria, the minimal inhibitory concentration (MIC) values were determined by the agar plate dilution method [see Chemotherapy, 22, 1126-1128 (1974)].
Each test inoculum was adjusted to 1×10^6 cells/ml (O.D., 600 mμ: 0.07-0.16).

A further test concerns E. coli No. 29. Put plainly: Antimicrobial activity test: MIC by the agar plate dilution method, E. coli No. 29. It counts as cell-based. Conditions: E. coli No. 29; inoculum 1×10^6 cells/ml. The essentials: as §1
The subject of the next test is P. aeruginosa NCTC-10490. Kind of test: Antimicrobial activity test: MIC by the agar plate dilution method, P. aeruginosa NCTC-10490. It counts as cell-based. Conditions: inoculum 1×10^6 cells/ml. The essentials: as §1
The test system of another test is K. pneumoniae NCTC-9632. Put plainly: Antimicrobial activity test: MIC by the agar plate dilution method, K. pneumoniae NCTC-9632. It counts as cell-based. Conditions: inoculum 1×10^6 cells/ml. In a few lines:
as §1

A further test relates to P. mirabilis 1287. Put plainly: Antimicrobial activity test: MIC by the agar plate dilution method, P. mirabilis 1287. Conditions: P. mirabilis 1287; inoculum 1×10^6 cells/ml. Format: cell-based. In a few lines: as §1

Where only a bound is given, the exact number is not on record here.

Regarding “7-[2-(2-Aminothiazol-4-yl)-2-cyclopropylmethyloxyiminoacetamido]-3-[(1,3,4-thiadiazol-2-yl)thiomethyl]-Δ^3 -O-2-isocephem-4-carboxylic acid trifluoroacetate (syn-isomer) [No. 10]”, the MIC (usually the lowest concentration found to suppress growth) against M. morganii ATCC-25830 was ≤ 0.025 µg/mL; in the test with S. aureus FDA-209-p, 0.05 µg/mL; against S. marcescens IFO-12648, 0.05 µg/mL; against E. coli NIHJ, ≤ 0.025 µg/mL; against E. coli No. 29 it was 0.05 µg/mL; in the test on P. aeruginosa NCTC-10490 it was 3.13 µg/mL. Besides, the MIC against K. pneumoniae NCTC-9632 is 0.05 µg/mL; in the test with P. mirabilis 1287, ≤ 0.025 µg/mL.

As to “7-[2-(2-Chloroacetamidothiazol-4-yl)-2-ethoxyiminoacetamido]-3-[(1,3,4-thiadiazol-2-yl)thiomethyl-]-Δ^3 -O-2-isocephem-4-carboxylic acid (syn-isomer) [Example 28]”, the MIC in the test on M. morganii ATCC-25830 was ≤ 0.025 µg/mL; against S. aureus FDA-209-p, 0.78 µg/mL; with S. marcescens IFO-12648 it was 0.2 µg/mL; with E. coli NIHJ, ≤ 0.025 µg/mL; with E. coli No. 29, ≤ 0.025 µg/mL; in the test on P. aeruginosa NCTC-10490 it was 1.56 µg/mL. Further, the MIC was 0.05 µg/mL against K. pneumoniae NCTC-9632 and ≤ 0.025 µg/mL with P. mirabilis 1287.

For “7-[2-(2-Aminothiazol-4-yl)-2-methoxyiminoacetamido]-3-[(1,2,3-thiadiazol-5-yl)thiomethyl]-Δ^3 -O-2-isocephem-4-carboxylic acid trifluoroacetate (syn-isomer) [No. 14]”, the MIC against M. morganii ATCC-25830 is ≤ 0.025 µg/mL; in the test on S. aureus FDA-209-p, 0.1 µg/mL; against S. marcescens IFO-12648, 0.1 µg/mL; against E. coli NIHJ it was ≤ 0.025 µg/mL; with E. coli No. 29, ≤ 0.025 µg/mL; in the test on P. aeruginosa NCTC-10490, 1.56 µg/mL. In addition, the MIC in the test with K. pneumoniae NCTC-9632 and against P. mirabilis 1287 was ≤ 0.025 µg/mL throughout.

As for “7-[2-(2-Aminothiazol-4-yl)-2-methoxyiminoacetamido]-3-[(1,4,5,6-tetrahydro-4-methyl-5,6-dioxo-1,2,4-triazin-3-yl)thiomethyl]-Δ^3 -O-2-isocephem-4-carboxylic acid (syn-isomer) [No. 4]”, the MIC is ≤ 0.025 µg/mL with M. morganii ATCC-25830; 0.78 µg/mL in the test on S. aureus FDA-209-p; 0.2 µg/mL against S. marcescens IFO-12648; ≤ 0.025 µg/mL against E. coli NIHJ; ≤ 0.025 µg/mL in the test on E. coli No. 29; 50 µg/mL against P. aeruginosa NCTC-10490. Further, the MIC in the test with K. pneumoniae NCTC-9632 and with P. mirabilis 1287 was ≤ 0.025 µg/mL each time.
